Measured values: publication PMC12693167, “Design, Synthesis and Anticancer Activity of 6-Substituted-1-(3,4,5-trimethoxyphenyl)-1H-indole Against Tubulin Polymerisation” (Molecules, 2025)
“Also recorded” adds a separate entry of the source.

Legend:
B16-F10 cells = experiment: CCK-8 antiproliferative assay, B16-F10; assay type: cell-based, murine; conditions: Mus musculus, cell viability (CCK-8), 48 h
Method: To evaluate the anticancer potential of the synthesized compounds, a panel of six human and murine cancer cell lines representing different tissue origins was selected, including MCF-7 (human breast adenocarcinoma), MDA-MB-231 (human triple-negative breast cancer), A549 (human non-small cell lung cancer), HeLa (human cervical cancer), A375 (human melanoma), and B16-F10 (murine melanoma) (Table 2). […] DMSO was used as the vehicle control, and all experiments were performed in triplicate to ensure reproducibility.
Human breast cancer cells (MCF-7), human lung cancer cells (A549), human cervical cancer cells (HeLa), human triple-negative breast cancer cells (MDA-MB-231), and human malignant melanoma cells (A375) were cultured in DMEM. Mouse melanoma cells (B16F10) were maintained in RPMI-1640 medium. All media were supplemented with 10% fetal bovine serum and 1% penicillin-streptomycin (Life Technologies, Carlsbad, CA, USA) and maintained at 37 °C in a humidified atmosphere with 5% CO2.
The cytotoxicity of the test compounds was evaluated against MCF-7, A549, HeLa, MDA-MB-231, A375, and B16F10 using the CCK-8 assay. Cells were seeded into 96-well plates at a density of 5000 cells/well. After removing the medium, 100 μL of medium with 0.1% DMSO containing test compounds at different concentrations was added to each well and incubated at 37 °C for another 48 h. The CCK-8 solution was added and incubated for another 1 h, and then, the absorbance was detected with a microplate reader at a wavelength of 450 nm. The IC50 values were calculated by nonlinear regression analysis using GraphPad Prism 8.0.2. All the experiments were repeated at least three times.

[1] = target: T1, Porcine brain tubulin protein (Sus scrofa, UniProt P02554); experiment: In vitro tubulin polymerization assay; assay type: biochemical
T1 construct: Porcine brain tubulin protein was dissolved in EM buffer; from tissue; host or cells: porcine brain
T1 sequence (P02554 whole entry): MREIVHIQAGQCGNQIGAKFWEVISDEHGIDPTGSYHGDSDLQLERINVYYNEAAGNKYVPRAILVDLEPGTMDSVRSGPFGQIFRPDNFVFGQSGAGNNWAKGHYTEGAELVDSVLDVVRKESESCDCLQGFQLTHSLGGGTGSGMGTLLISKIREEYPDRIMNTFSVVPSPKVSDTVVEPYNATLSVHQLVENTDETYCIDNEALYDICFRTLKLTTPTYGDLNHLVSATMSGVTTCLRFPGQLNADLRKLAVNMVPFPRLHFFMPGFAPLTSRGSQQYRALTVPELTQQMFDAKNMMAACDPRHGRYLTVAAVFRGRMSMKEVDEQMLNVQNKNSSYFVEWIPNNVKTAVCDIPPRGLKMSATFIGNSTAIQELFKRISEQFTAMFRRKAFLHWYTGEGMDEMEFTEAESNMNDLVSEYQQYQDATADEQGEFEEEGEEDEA
T1 sequence (P02550 whole entry partner): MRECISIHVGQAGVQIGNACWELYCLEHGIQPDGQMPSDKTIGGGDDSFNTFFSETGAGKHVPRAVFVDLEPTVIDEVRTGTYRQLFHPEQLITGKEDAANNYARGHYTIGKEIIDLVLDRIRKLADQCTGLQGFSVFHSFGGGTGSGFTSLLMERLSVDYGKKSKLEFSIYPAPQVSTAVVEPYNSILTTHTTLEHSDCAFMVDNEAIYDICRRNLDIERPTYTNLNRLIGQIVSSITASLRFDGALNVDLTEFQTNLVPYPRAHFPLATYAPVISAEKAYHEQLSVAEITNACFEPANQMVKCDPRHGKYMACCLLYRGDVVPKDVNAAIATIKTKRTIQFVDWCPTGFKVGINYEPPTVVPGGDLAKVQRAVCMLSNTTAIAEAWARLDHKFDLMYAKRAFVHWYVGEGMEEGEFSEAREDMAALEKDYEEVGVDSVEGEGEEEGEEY
Method: The ability of compound 3g to disrupt microtubule dynamics was assessed using an in vitro tubulin polymerization assay.
Porcine brain tubulin protein was dissolved in EM buffer containing 5% glycerol (80 mM PIPES, 2 mM GTP, 2 mM MgCl2, and 0.5 mM EGTA, pH 6.9). Compounds were diluted in EM buffer to final concentrations of 50, 25, 10, 5, and 2.5 μM and added to a pre-warmed 384-well plate, followed by pre-incubation at 37 °C. Subsequently, 14 μL of the tubulin-GTP mixture was added to each well containing the test compounds. Tubulin polymerization was monitored by measuring absorbance at 340 nm every minute for 60 min. […] Each assay was performed in triplicate.
Absorbance at 340 nm was determined every 1 min.

[2] = system: microtubule network in MCF-7 cells; experiment: Immunofluorescence staining of microtubules; assay type: cell-based, human; conditions: 0.1, 1 and 10 μM, 24 h
Method: Given the potent in vitro antiproliferative activity of compound 3g, its effects on microtubule organization were further investigated using immunofluorescence staining in MCF-7 cells. […] The network appeared disassembled and fragmented in a dose-dependent manner, indicating significant cytoskeletal destabilization.
MCF-7 cells were seeded on glass coverslips in 24-well plates and then treated with vehicle control 0.1% DMSO, 3g (0.1, 1, 10 μM) for 24 h. The cells were fixed with 4% paraformaldehyde and then permeabilized with PBS containing 0.2% Triton X-100. After blocking for 30 min by adding 100 μL of goat serum albumin at room temperature, cells were incubated with a β-tubulin polyclonal antibody (Proteintech, Wuhan Sanying Biotechnology, Wuhan, China, Cat# 10094-1-AP, 1:500 dilution) at 37 °C for 12 h. Then, the cells were washed three times with PBS and incubated with a secondary antibody (Beyotime, Shanghai, China, Cat# A0516, 1:500 dilution) for 1 h at room temperature. Nuclei were labeled with 4,6-diamidino-2-phenylindole (DAPI). Cells were finally visualized using a fluorescence microscope (Nikon TI2-E+A1R, Nikon Corporation, Tokyo, Japan).
Figure 5 Effects of compound 3g on microtubules. MCF-7 cells were treated with vehicle control 0.1% DMSO, compound 3g (0.1μM, 1μM, and 10 μM for 24 h). […]

[3] = In vivo tolerability (body weight, H&E histopathology of liver and kidney); parameters: species or system mouse
Method: All animal procedures were approved by the Animal Ethics Committee of the Naval Medical University (permit number: EC11-055). Male BALB/c mice (6–8 weeks old, average initial body weight approximately 18–20 g) were purchased from Shanghai SLAC Laboratory Animal Co., Ltd. The inhibitory effect of compound 3g was evaluated using a subcutaneous B16-F10 melanoma xenograft model. Log-phase B16F10 cells were suspended in PBS and subcutaneously injected into mice (200 μL containing 8 × 10^5 cells per mouse) to establish tumors. Mice were randomly divided into control and treatment groups (n = 8). Compound 3g and paclitaxel were dissolved in a vehicle consisting of DMSO:PEG:Tween-80:saline (v/v/v/v, 5:35:10:50) to the desired concentrations. Treatments (paclitaxel, 10 mg/kg; compound 3g, 20 and 50 mg/kg, doses calculated on a body-weight basis) and vehicle were administered once daily via intraperitoneal injection for 14 consecutive days. Body weights were monitored throughout the study to assess acute toxicity. Tumor volumes were measured using calipers and calculated with the formula: a × b^2 × 0.5, where a and b represent the larger and smaller tumor diameters, respectively. On day 14, mice were sacrificed and tumors were excised and weighed. […] Major organs (liver and kidneys) were collected, fixed in 4% paraformaldehyde, processed into paraffin sections, stained with hematoxylin and eosin (H&E), and examined microscopically.
Figure 8 Compound 3g inhibits melanoma tumor growth in vivo. Murine melanoma B16-F10 xenograft tumors were established in mice, which were then administered vehicle, PTX (10 mg/kg per day), compound 3g (20 mg/kg per day), and compound 3g (50 mg/kg per day) for 14 days. The mice were sacrificed, and the tumors were weighed. (A) Images of tumors from mice at 14 days after initiation of treatment. (B) Body weight changes in mice during treatment. (C) Weight of the excised tumors of each group. * p < 0.05, and *** p < 0.001 vs. control group. (D) Tumor volume changes in mice during treatment. […]

[4] = 20 and 50 mg/kg i.p. daily, 14 days

COc1cc(-n2ccc3ccc(-c4ccc(C)c(C#N)c4)cc32)cc(OC)c1OC [3g, 2-methyl-5-(1-(3,4,5-trimethoxyphenyl)-1H-indol-6-yl)benzonitrile]
IC50 (B16-F10 cells): 1690 ± 410 nM | effect on tubulin assembly ([1]; 50 μM): markedly suppressed tubulin assembly | effect on tubulin polymerization ([1]; 2.5–50 μM, absorbance at 340 nm): inhibited tubulin polymerization in a concentration-dependent manner | microtubule architecture [2]: progressive disruption | systemic toxicity ([3]; 20 mg/kg and 50 mg/kg): without evident systemic toxicity | body weight change [3, 4]: did not induce significant body weight loss | histopathology of liver and kidneys (H&E) [3, 4]: no overt toxicity; also recorded: did not reveal obvious morphological abnormalities
